Target: T1, Mitra Avidin-Agarose (Gallus gallus, UniProt P02701)
T1 construct: Mitra (Mitra Medical Technology AB)
Experiment: Adsorption of biotin-trimer to avidin-agarose column (conditioning, ELISA of recirculated fluid)
Assay type: binding
Design: biotin-trimer bound if one biotin-trimer is bound per available binding site: unit not given here
Method: Two mL of Mitra Avidin-Agarose was packed into a column housing and was washed with >10 mL of PBS at a flow rate of 1 mL/min (1.6 cm/min). Five mL of a 1 mg/mL solution of biotin-trimer in PBS was recirculated through the avidin-column at 1 mL/min for 20 minutes. At end of the recirculation, a sample (0.5 mL) was drawn from the recirculated solution and analysed by an ELISA technique developed by Mitra Medical Technology AB. The biotin-avidin-agarose-column was washed with phosphate buffer at 1 mL/min for 20 minutes. By determining the concentration of biotin-trimer in the recirculated fluid, the amount of adsorbed biotin-trimer was estimated to about 1.9 mg i.e. […] of gel at the end of recirculation.
Biotin-trimer was adsorbed to 2 mL of Mitra Avidin-Agarose. […] If one biotin-trimer is bound per available binding site this would correspond to […] biotin-trimer/mL. As about 0.95 mg biotin-trimer was bound per mL avidin-agarose it can be assumed that the adsorbent was saturated with biotin-trimer.

T1 sequence (P02701 25-152): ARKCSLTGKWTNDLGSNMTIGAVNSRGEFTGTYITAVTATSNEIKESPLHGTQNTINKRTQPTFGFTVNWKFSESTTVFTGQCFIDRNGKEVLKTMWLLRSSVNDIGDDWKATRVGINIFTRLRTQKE

O=C(CCCCC1OCC2NC(=O)NC21)NCCOCCOCCNC(=O)c1cc(C(=O)NCCOCCOCCNC(=O)CCCCC2OCC3NC(=O)NC32)cc(C(=O)NCCOCCOCCNC(=O)CCCCC2OCC3NC(=O)NC32)c1 (stereo not shown) [biotin-trimer]
biotin-trimer bound per mL avidin-agarose (2 mL Mitra Avidin-Agarose): about 0.95 mg per mL avidin-agarose | amount of adsorbed biotin-trimer at end of recirculation (2 mL Mitra Avidin-Agarose, 5 mL of 1 mg/mL biotin-trimer in PBS recirculated at 1 mL/min for 20 minutes): about 1.9 mg | amount of adsorbed biotin-trimer per mL of gel (2 mL Mitra Avidin-Agarose, end of 20 min recirculation): ~0.95 mg/mL | biotin-trimer bound if one biotin-trimer is bound per available binding site (theoretical, from static biotin binding capacity): 514

Source: patent US20020159994A1, “Biotin derivatives” (priority 2000, published 2002)
